According to patent US20220281848A1, “PYRAZOLE-SUBSTITUTED PYRROLIDINONES AS HERBICIDES” (FMC Corporation, priority 2019, published 2022):

Legend:
Assay type in all cases: in vivo
Details in all cases: after 13 d
[1] = test system: corn (Zea mays, ZEAMX); test: Test A pre-emergence, corn
Method: (§1) Seeds of corn (Zea mays, ZEAMX), giant foxtail (Setaria faberi, SETFA), barnyardgrass (Echinochloa crus-galli, ECHCG), ivy-leaved morning glory (Ipomoea hederacea, IPOHE), redroot pigweed (Amaranthus retroflexus, AMARE) and velvetleaf (Abutilon theophrasti, ABUTH) were sown in standard soil in pots. After cultivation for one day under controlled conditions in a glasshouse (at 24/16° C., day/night; 14 h light; 65% humidity), the plants were sprayed with an aqueous spray solution derived from the formulation of the technical active ingredient in acetone/water (50:50) solution containing 0.5% Tween 20 (polyoxyethylene sorbitan monolaurate, CAS RN 9005-64-5) to give a final dose of 15.625, 62.5 or 250 g/ha of test compound.
(§2) The test plants were then grown under controlled conditions in a glasshouse (at 24/16° C., day/night; 14 h light; 65% humidity) and watered twice daily. After 13 d the test was evaluated (100=total damage to plant; 0=no damage to plant).

[2] = test system: giant foxtail (Setaria faberi, SETFA); test: Test A pre-emergence, giant foxtail
Method: as §1, §2

[3] = test system: barnyardgrass (Echinochloa crus-galli, ECHCG); test: Test A pre-emergence, barnyardgrass
Method: as §1, §2

[4] = test system: ivy-leaved morning glory (Ipomoea hederacea, IPOHE); test: Test A pre-emergence, ivy-leaved morning glory
Method: as §1, §2

[5] = test system: redroot pigweed (Amaranthus retroflexus, AMARE); test: Test A pre-emergence, redroot pigweed
Method: as §1, §2

[6] = test system: velvetleaf (Abutilon theophrasti, ABUTH); test: Test A pre-emergence, velvetleaf
Method: as §1, §2

[7] = test system: corn (Zea mays, ZEAMX); test: Test A post-emergence, corn
Method: as §1, with “IPOHE)),” for “IPOHE),”, “8 d” for “one day”
(§3) The test plants were then grown on under controlled conditions in a glasshouse (at 24/16° C., day/night; 14 h light; 65% humidity) and watered twice daily. After 13 d the test was evaluated (100=total damage to plant; 0=no damage to plant).

[8] = test system: giant foxtail (Setaria faberi, SETFA); test: Test A post-emergence, giant foxtail
Method: as §1, with “IPOHE)),” for “IPOHE),”, “8 d” for “one day”
as §3

[9] = test system: barnyardgrass (Echinochloa crus-galli, ECHCG); test: Test A post-emergence, barnyardgrass
Method: as §1, with “IPOHE)),” for “IPOHE),”, “8 d” for “one day”
as §3

[10] = test system: ivy-leaved morning glory (Ipomoea hederacea, IPOHE); test: Test A post-emergence, ivy-leaved morning glory
Method: as §1, with “IPOHE)),” for “IPOHE),”, “8 d” for “one day”
as §3

[11] = test system: redroot pigweed (Amaranthus retroflexus, AMARE); test: Test A post-emergence, redroot pigweed
Method: as §1, with “IPOHE)),” for “IPOHE),”, “8 d” for “one day”
as §3

[12] = test system: velvetleaf (Abutilon theophrasti, ABUTH); test: Test A post-emergence, velvetleaf
Method: as §1, with “IPOHE)),” for “IPOHE),”, “8 d” for “one day”
as §3

Compound: CCc1ccccc1NC(=O)C1C(=O)N(C)CC1c1cc(C(F)(F)F)n(C)n1 (racemic) [Compound 20]
- damage to plant (100=total damage; 0=no damage) ZEAMX ([1]; Pre-Emergence at 15.625 g/ha): 0
- damage to plant (100=total damage; 0=no damage) ZEAMX ([1]; Pre-Emergence at 62.5 g/ha): 0
- damage to plant (100=total damage; 0=no damage) ZEAMX ([1]; Pre-Emergence at 250 g/ha): 20
- damage to plant (100=total damage; 0=no damage) SETFA ([2]; Pre-Emergence at 15.625 g/ha): 50
- damage to plant (100=total damage; 0=no damage) SETFA ([2]; Pre-Emergence at 62.5 g/ha): 80
- damage to plant (100=total damage; 0=no damage) SETFA ([2]; Pre-Emergence at 250 g/ha): 90
- damage to plant (100=total damage; 0=no damage) ECHCG ([3]; Pre-Emergence at 15.625 g/ha): 50
- damage to plant (100=total damage; 0=no damage) ECHCG ([3]; Pre-Emergence at 62.5 g/ha): 80
- damage to plant (100=total damage; 0=no damage) ECHCG ([3]; Pre-Emergence at 250 g/ha): 90
- damage to plant (100=total damage; 0=no damage) IPOHE ([4]; Pre-Emergence at 15.625 g/ha): 0
- damage to plant (100=total damage; 0=no damage) IPOHE ([4]; Pre-Emergence at 62.5 g/ha): 0
- damage to plant (100=total damage; 0=no damage) IPOHE ([4]; Pre-Emergence at 250 g/ha): 0
- damage to plant (100=total damage; 0=no damage) AMARE ([5]; Pre-Emergence at 15.625 g/ha): 50
- damage to plant (100=total damage; 0=no damage) AMARE ([5]; Pre-Emergence at 62.5 g/ha): 60
- damage to plant (100=total damage; 0=no damage) AMARE ([5]; Pre-Emergence at 250 g/ha): 70
- damage to plant (100=total damage; 0=no damage) ABUTH ([6]; Pre-Emergence at 15.625 g/ha): 0
- damage to plant (100=total damage; 0=no damage) ABUTH ([6]; Pre-Emergence at 62.5 g/ha): 0
- damage to plant (100=total damage; 0=no damage) ABUTH ([6]; Pre-Emergence at 250 g/ha): 0
- damage to plant (100=total damage; 0=no damage) ZEAMX ([7]; Post-Emergence at 15.625 g/ha): 0
- damage to plant (100=total damage; 0=no damage) ZEAMX ([7]; Post-Emergence at 62.5 g/ha): 0
- damage to plant (100=total damage; 0=no damage) ZEAMX ([7]; Post-Emergence at 250 g/ha): 0
- damage to plant (100=total damage; 0=no damage) SETFA ([8]; Post-Emergence at 15.625 g/ha): 30
- damage to plant (100=total damage; 0=no damage) SETFA ([8]; Post-Emergence at 62.5 g/ha): 70
- damage to plant (100=total damage; 0=no damage) SETFA ([8]; Post-Emergence at 250 g/ha): 80
- damage to plant (100=total damage; 0=no damage) ECHCG ([9]; Post-Emergence at 15.625 g/ha): 20
- damage to plant (100=total damage; 0=no damage) ECHCG ([9]; Post-Emergence at 62.5 g/ha): 60
- damage to plant (100=total damage; 0=no damage) ECHCG ([9]; Post-Emergence at 250 g/ha): 80
- damage to plant (100=total damage; 0=no damage) IPOHE ([10]; Post-Emergence at 15.625 g/ha): 0
- damage to plant (100=total damage; 0=no damage) IPOHE ([10]; Post-Emergence at 62.5 g/ha): 0
- damage to plant (100=total damage; 0=no damage) IPOHE ([10]; Post-Emergence at 250 g/ha): 0
- damage to plant (100=total damage; 0=no damage) AMARE ([11]; Post-Emergence at 15.625 g/ha): 10
- damage to plant (100=total damage; 0=no damage) AMARE ([11]; Post-Emergence at 62.5 g/ha): 10
- damage to plant (100=total damage; 0=no damage) AMARE ([11]; Post-Emergence at 250 g/ha): 20
- damage to plant (100=total damage; 0=no damage) ABUTH ([12]; Post-Emergence at 15.625 g/ha): 0
- damage to plant (100=total damage; 0=no damage) ABUTH ([12]; Post-Emergence at 62.5 g/ha): 0
- damage to plant (100=total damage; 0=no damage) ABUTH ([12]; Post-Emergence at 250 g/ha): 0
